Test [1] deals with sAPPβ release in SH-SY5Y cells. Description: sAPPβ release assay. The class given is cell-based. The settings on record: Homo sapiens, 17 h incubation. As to the method: SH-SY5Y cells were cultured in DMEM/F-12 with Glutamax, 10% FCS and 1% non-essential amino acids and cryopreserved and stored at −140° C. at a concentration of 7.5-9.5×10^6 cells per vial. Thaw cells and seed at a conc. of around 10000 cells/well in DMEM/F-12 with Glutamax, 10% FCS and 1% non-essential amino acids to a 384-well tissue culture treated plate, […] cell susp/well. The cell plates were then incubated for 7-24 h at 37° C., 5% CO2. The cell medium was removed, followed by addition of 30 μL compound diluted in DMEM/F-12 with Glutamax, 10% FCS, 1% non-essential amino acids and 1% PeSt to a final conc. of 1% DMSO. The compounds were incubated with the cells for 17 h (overnight) at 37° C., 5% CO2. Meso Scale Discovery (MSD) plates were used for the detection of sAPPβ release. MSD sAPPβ plates were blocked in 1% BSA in Tris wash buffer (40 μL/well) for 1 h on shake at r.t. and washed 1 time in Tris wash buffer (40 μL/well). 20 μL of medium was transferred to the pre-blocked and washed MSD sAPPβ microplates, and the cell plates were further used in an ATP assay to measure cytotoxicity. The MSD plates were incubated with shaking at r.t. for 2 h and the media discarded. 10 μL detection antibody was added (1 nM) per well followed by incubation with shaking at r.t. for 2 h and then discarded. 40 μL Read Buffer was added per well and the plates were read in a SECTOR Imager.

Test [2] addresses T1, human β-secretase (sBACE-Fc, soluble part AA 1-AA 460) (Homo sapiens (Human), UniProt P56817). The test is described as follows: Diluted TR-FRET assay. The format is biochemical. To be noted: 50 times less enzyme, 6.5 h reaction time at r.t. in the dark; read-out: IC50 from the diluted FRET assay. The protocol:
(§1) The β-secretase enzyme used in the TR-FRET is prepared as follows:
(§2) The cDNA for the soluble part of the human 13-Secretase (AA 1-AA 460) was cloned using the ASP2-Fc10-1-IRES-GFP-neoK mammalian expression vector. The gene was fused to the Fc domain of IgG1 (affinity tag) and stably cloned into HEK 293 cells.
[…] The robotic systems Biomek FX and Velocity 11 were used for all liquid handling and the enzyme and substrate solutions were kept on ice until they were placed in the robotic system. Enzyme (9 μL) was added to the plate then 1 μL of compound in dimethylsulphoxide was added, mixed and pre-incubated for 10 minutes. […] The reaction was stopped with the addition of Stop solution (7 μL, NaAcetate, pH 9). The fluorescence of the product was measured on a Victor II plate reader with an excitation wavelength of 340 nm and an emission wavelength of 615 nm. The assay was performed in a Costar 384 well round bottom, low volume, non-binding surface plate (Corning #3676). […] The dimethylsulphoxide control, instead of test compound, defined the 100% activity level and 0% activity was defined by wells lacking enzyme (replaced with reaction buffer).
On the technique in general: TR-FRET usually uses a lanthanide donor and a delayed reading to cut background.

For test [3], the target named is T1, human β-secretase (sBACE-Fc, soluble part AA 1-AA 460). Description: TR-FRET assay. The class given is biochemical. The settings on record: TruPoint BACE1 substrate 100 nM, pH 4.5, 15 min at r.t. The protocol: as §1, §2
The enzyme (truncated form) was diluted to 6 μg/mL (stock 1.3 mg/mL) and the TruPoint BACE1 Substrate to 200 nM (stock 120 μM) in reaction buffer (NaAcetate, chaps, triton x-100, EDTA pH4.5). The robotic systems Biomek FX and Velocity 11 were used for all liquid handling and the enzyme and substrate solutions were kept on ice until they were placed in the robotic system. Enzyme (9 μL) was added to the plate then 1 μL of compound in dimethylsulphoxide was added, mixed and pre-incubated for 10 minutes. Substrate (10 μL) was then added, mixed and the reaction proceeded for 15 minutes at r.t. The reaction was stopped with the addition of Stop solution (7 μL, NaAcetate, pH 9). The fluorescence of the product was measured on a Victor II plate reader with an excitation wavelength of 340 nm and an emission wavelength of 615 nm. The assay was performed in a Costar 384 well round bottom, low volume, non-binding surface plate (Corning #3676). […] The dimethylsulphoxide control, instead of test compound, defined the 100% activity level and 0% activity was defined by wells lacking enzyme (replaced with reaction buffer).

By pIC50 is commonly meant the IC50 on a negative log10 scale, so that one unit is a factor of ten.

pIC50: −log10 of the molar value.

T1 sequence (P56817 22-460): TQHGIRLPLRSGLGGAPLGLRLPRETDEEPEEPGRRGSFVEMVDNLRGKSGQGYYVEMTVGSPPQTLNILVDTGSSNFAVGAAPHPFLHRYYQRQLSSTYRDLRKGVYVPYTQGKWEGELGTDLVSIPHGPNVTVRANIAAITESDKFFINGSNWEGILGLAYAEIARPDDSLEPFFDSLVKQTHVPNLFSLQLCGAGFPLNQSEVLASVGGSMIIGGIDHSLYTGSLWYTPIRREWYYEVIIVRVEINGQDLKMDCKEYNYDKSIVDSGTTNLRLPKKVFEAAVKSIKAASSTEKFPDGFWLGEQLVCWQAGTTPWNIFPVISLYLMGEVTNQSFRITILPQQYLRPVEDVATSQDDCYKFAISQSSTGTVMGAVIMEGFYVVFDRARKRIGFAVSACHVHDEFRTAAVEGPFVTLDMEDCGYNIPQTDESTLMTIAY

As to `CO[C@H]1CC[C@]2(CC1)Cc1ccc(-c3cncnc3)cc1C21C=C(F)C(N)=N1` (stereo partly drawn) [Example 1, (1r,4r)-4″-fluoro-4-methoxy-6′-(pyrimidin-5-yl)-3′H-dispiro[cyclohexane-1,2′-indene-1,2″-pyrrol]-5″amine], the results for the pIC50 in test [1] and in test [2] were 8.96 and 7.66, respectively.
As to `CO[C@H]1CC[C@@]2(CC1)Cc1ccc(-c3cncnc3)cc1C21C=C(F)C(N)=N1` (stereo partly drawn) [Example 2, (1s,4s)-4″-Fluoro-4-methoxy-6′-(pyrimidin-5-yl)-3′H-dispiro[cyclohexane-1,2′-indene-1,2″-pyrrol]-5″amine], the pIC50 in test [1] is 7.25; in test [3], 5.71.
The like results for `CC#Cc1cncc(-c2ccc3c(c2)C2(C=C(F)C(N)=N2)[C@]2(CC[C@H](OC)CC2)C3)c1` (stereo partly drawn) [Example 3, (1r,4r)-4″-Fluoro-4-methoxy-6′-[5-(prop-1-yn-1-yl)pyridin-3-yl]-3′H-dispiro[cyclohexane-1,2′-indene-1′,2″-pyrrol]-5″amine] were, in that order, 10.51 and 7.74.
The matching figures for `CC#Cc1cncc(-c2ccc3c(c2)C2(C=C(F)C(N)=N2)[C@]2(CC[C@@H](OC)CC2)C3)c1` (stereo partly drawn) [Example 4, (1s,4s)-4″-Fluoro-4-methoxy-6′-[5-(prop-1-yn-1-yl)pyridin-3-yl]-3′H-dispiro[cyclohexane-1,2′-indene-1′,2″-pyrrol]-5″amine]: 8.96 and 6.59.
The matching figures for `CO[C@H]1CC[C@]2(CC1)Oc1ccc(-c3cc(F)cc(C#N)c3)cc1C21C=C(F)C(N)=N1` (stereo partly drawn) [Example 5, 3-[(1s,4s)-5″-Amino-4″-fluoro-4-methoxydispiro[cyclohexane-1,2′-[1]benzofuran-3′,2″-pyrrol]-5′-yl]-5-fluorobenzonitrile]: 8.52 and 7.15.
On to `CC1(C)COc2ccc(-c3cncnc3)cc2C12C=C(F)C(N)=N2` (stereo not drawn) [Example 6, 4′-Fluoro-3,3-dimethyl-6-(pyrimidin-5-yl)spiro[chroman-4,2′-pyrrol]-5′-amine], for which the pIC50 in test [1] was 7.72; in test [3] it was 6.11.
The like results for `CC1(C)COc2ccc(-c3cncc(F)c3)cc2C12C=C(F)C(N)=N2` (stereo not drawn) [Example 7, 4′-Fluoro-6-(5-fluoropyridin-3-yl)-3,3-dimethylspiro[chroman-4,2′-pyrrol]-5′-amine] were, in that order, 7.52 and 6.11.
The like results for `CC1(C)COc2ccc(-c3cc(F)cc(F)c3)cc2C12C=C(F)C(N)=N2` (stereo not drawn) [Example 8, 6-(3,5-Difluorophenyl)-4′-fluoro-3,3-dimethylspiro[chroman-4,2′-pyrrol]-5′-amine] were, in that order, 6.59 and 6.19.
The like results for `CC1(C)Cc2ccc(-c3cncnc3)cc2C12C=C(F)C(N)=N2` (stereo not drawn) [Example 9, 4′-fluoro-2,2-dimethyl-6-(pyrimidin-5-yl)-2,3-dihydrospiro[indene-1,2′-pyrrol]-5′-amine] were, in that order, 6.77 and 5.42.

These data come from patent US9650336B2, “Mono-fluoro beta-secretase inhibitors” (ASTRAZENECA AB, priority 2011, dated 2017).
